Laboratory results: ChEMBL document CHEMBL1201862, “PubChem BioAssay data set” (2004)
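Five concentrations, 48 hours, 96-well plates. GI50 is the concentration that inhibits growth by half.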 Activity calls are given as the source filed them. Rule as the data show it: active = GI50 up to about 1.1 µM and inactive = higher.

Experiments:
Experiment in all cases: NCI anticancer screen, dose series, 48 h
DMS-273 = system: DMS-273
RXF 631 = system: RXF 631
SNB-78 = system: SNB-78
LXFL 529 = system: LXFL 529
DLD-1 = system: DLD-1
XF498 = system: XF498
DMS-114 = system: DMS-114
HOP-18 = system: HOP-18
M19-MEL = system: M19-MEL

Measured: GI50

C/C(=N\N(C)C)c1sc(-n2nc(-c3ccccc3)cc2-c2ccccc2)nc1C
inactive: DMS-273 > 100 µM | RXF 631 43.9 µM | SNB-78 > 100 µM | LXFL 529 > 100 µM | DLD-1 > 100 µM | XF498 > 100 µM | DMS-114 72.6 µM | HOP-18 > 100 µM | M19-MEL > 100 µM
